In US20230392115A1, “METHODS FOR MAKING AND USING DIFFERENTIATED NEURAL CELLS” (Research Development Foundation, priority 2020, published 2023):

Columns and labels:
[1] = ATP-based cytotoxicity assay (Cmax allowing 100% viability); settings: human, human embryonic pluripotent stem cell line HS420; HS420 cells; ATP quantification assay; read-out: Cmax (in vitro concentration allowing 100% of survival)
Text: Multiple combinations between Noggin, LDN193189 and SB431542 are commonly used and generally called “dualSMAD inhibition”. It represents to date the most widely used way to induce early neural specification of PSC in vitro. Described herein is the report of a differentiation approach that excludes “dual Smad inhibition,” and instead achieves differentiation through the use of 5 chemicals inhibiting ALK to induce neural specification of pluripotent stem cells in vitro: ML347, DMH1, DMH2, K02288 and A8301 (Table 1). Table 1 indicates their name, PubChem ID and toxicity on the human embryonic Pluripotent Stem Cell line (ePSC) HS420, by using an ATP-based cytotoxicity assay. The Cmax was defined as the maximal concentration in vitro allowing 100% of viability of cells.

HS420 cells [2] = test: Q-RT-PCR of regionalization markers (Otx-2, Lmxla, FoxA2, FoxG1, Msx-1) at day 8; type: cell-based, human; settings: 0.2 uM, day 8, normalized to vehicle
Experimental: FIG. 6: HS420 cells were exposed for 8 days to dual SMAD inhibition or ALK inhibitors at the concentration of 0.2 μM. Regionalization markers were measured by Q-RT-PCR and normalized with control conditions (no compounds, vehicle alone).
(§1) Quantitative PCR was performed with Tecan Freedom Evo by using SYBR green fluorescence. cDNA was produced from RNA by using the prime script RT reagent kit (Takara). All primers were diluted at a concentration of 0.86 μM, and a master mix was used (Power SYBR Green Master Mix, Thermo Fisher Scientific).
A possible impact of ALK inhibitors on early neural specification was analysed after 8 days of differentiation and compared with dual SMAD inhibition. Several markers of early specification, focusing on forebrain/midbrain regionalization were measured by Q-RT-PCR at day 8 in neural induction medium. The following markers were tested: Otx-2 which is an anterior marker (forebrain and midbrain), Lmxla which is expressed in dorsal and ventral midbrain, FoxA2 which is a ventral marker in forebrain, midbrain and hindbrain. Was also tested the forebrain FoxG1 and Msx-1 which is more specific for early dopaminergic differentiation. Several experiments were performed (n=3) and values were normalized as the percentage of control (=no compound, vehicle lone). At this early stage (day 8), FoxA2 and Msx-1 were not detected by PCR in all conditions, showing the absence of acquisition of a ventral and dopaminergic identity. […] The Hindbrain marker HoxA2 was not detected at this stage (not shown), showing the absence of a hindbrain identity (not shown). […] DMH1 and DMH2 reduce the forebrain identity, a useful prerequisite for dopaminergic specification.

HS420 cells [3] = test: Neuronal maturation after passage (nestin-, βIII-tubulin+ cells); type: cell-based, human; settings: cells previously exposed to ALKi 0.2 μM, passaged at day 8, maturation
Experimental: FIG. 7: Neuronal maturation f HS420 cells (one month) exposed to ALKi versus dualSMAD inhibition.
(§2) For neural differentiation, HS420 cells at 50% of confluency were passaged in new laminin 521-coated tissue culture plates at the density of 10000 cells/cm^2 in Stemflex medium supplemented with ROCK inhibitor (Y27632, abcam) at 10 μM. After 24 h, cells were submitted to a medium change, the Stemflex being replaced by the following neural induction medium: Neurobasal (Thermofisher) supplemented with penicillin/streptomycin 100 U/ml (Invitrogen), B-27 supplement (Thermofisher), L-glutamine 2 mM (Thermofisher). Cells were passaged at day 8 and subsequent confluency (every weeks), by the use of Accutase (Thermofisher) and replated on polyornithine/Matrigel (Sigma)-coated tissue culture flasks at the density of 50 000/cm^2. • 3. Immunocytochemistry
At confluency (occurring in these conditions at day 8), cells were passaged at a very low density with Accutase and polyornithine/Matrigel-coated dished for neuronal maturation in appropriated medium. Neuronal cells (nestin− and βIII-tubulin+ cells with a neuritic morphology) were present in cells previously exposed to the four compounds, in contrast to control conditions from which cells reduced progressively their number, with only few neuronal cells in the plate (FIG. 7).

[4] = system: human embryonic stem cell line HS420; test: Morphology of embryonic stem cells after one week of exposure in neural induction medium; type: cell-based; settings: 0.2 μM; for morphological modifications of embryonic stem cells: vs control (DMSO)
Experimental: as §2
(§3) To study the effects of ML347, DMH1, DMH2, K02288 and A8301 on PSC, the human embryonic stem cell line HS420 was used. Cells were plated at a low density on laminin 521 (10000/cm^2) in their maintenance medium (Stemflex) and exposed 24 h later to ML347, DMH1 or DMH2 or K02288 or A8301, during one week, at the concentration of 0.2 μM in a minimal medium suited for early neural induction. Once confluent (after 8 days), cells were passaged and plated in the same medium, without neural inductors, at the density of 50000/cm^2 polyornithine/Matrigel—coated tissue culture flasks for maturation (FIG. 2).

[5] = system: human embryonic stem cell line HS420; test: Immunofluorescent staining for nestin, Pax-6, Sox-1 at day 8; type: cell-based; settings: 0.2 μM
Experimental: Cells on glass coverslips were fixed with 1 mL of 0.5% paraformaldehyde in PBS for 30 minutes at room temperature. Cells were then washed three times with 1 mL of PBS and incubated overnight with primary antibodies in PBS containing 0.1% Triton X-100 (Sigma), and 1% bovine serumalbumine (Sigma). Cells were washed three times with 1 mL of PBS before incubation for 1 h30 min with the secondary antibody in PBS containing 0.1% Triton X-100 and 1% bovine serumalbumine. Cells were washed three times with PBS before exposure to DAPI 300 nM in PBS (Sigma) for 15 minutes at room temperature. After three washes in PBS, cells were rinsed with water and mounted in glass slides using Fluorsave reagent (Merck Millipore). • 4. Quantitative RT PCR
as §3, with “2). […]” for “2).”

[6] = system: human embryonic stem cell line HS420; test: Q-RT-PCR of neuroectodermal markers (Pax-6, Sox-1, nestin) at day 8; type: cell-based
Experimental: FIG. 5: Quantification of neuroectodermal markers following exposition of HS420 cells one week with ALKi or dualSMAD inhibition. Results are expressed as the percentage of control condition (DMSO) in three independent experiments. The bars in each bar graph represent, from left to right, data from DMH-1, DMH-2, K02288, A8301, and LDN+SB.
as §1
Q-RT-PCR experiments were performed to provide a quantitative description of neural-inducing effects of the 4 compounds (in three independent experiments).

With c1ccc2c(-c3cnn4cc(-c5ccc(OCCN6CCOCC6)cc5)cnc34)ccnc2c1 [DMH2, 4-(2-(4-(3-(Quinolin-4-yl)pyrazolo[1,5-a]pyrimidin-6-yl)phenoxy)ethyl)morpholine] the Cmax [1] was 580 ± 200 nM, the “FoxG1 expression (forebrain specification)” value (“FoxG1 expression” for short) (HS420 cells [2]) was “reduced FoxG1 expression” and the “neural induction with generation of cells able to mature into neurons” value (“neural induction with generation” for short) (HS420 cells [3]) was “favoured neural induction with the generation of cells able to be further maturated into neurons”. For the same molecule, the “morphological modifications of embryonic stem cells” value (“morphological modifications” for short) [4] was “showed morphological modifications”.

In the case of COc1cc(-c2cc(-c3cccc(O)c3)cnc2N)cc(OC)c1OC [K02288, 3-[6-Amino-5-(3,4,5-Trimethoxyphenyl)pyridin-3-Yl]phenol], the Cmax [1] is reported as 530 ± 250 nM, the “expression of nestin, Pax-6 and Sox-1 by immunofluorescent staining” value [5] is reported as “homogeneously expressed nestin, Pax-6 and Sox-1” and the “neural induction with generation” value (HS420 cells [3]) is reported as “favoured neural induction with the generation of cells able to be further maturated into neurons”. The “epithelial-like cells spreading between the colonies” value [4] was “invaded as a monolayer the free tissue culture plate between the colonies” and the “morphological modifications” value [4] was “showed morphological modifications”.

For NC(=O)c1ccc(-c2nc(-c3ccc4c(c3)OCO4)c(-c3ccccn3)[nH]2)cc1 [SB431542, 4-(4-(Benzo[d][1,3]dioxol-5-yl)-5-(pyridin-2-yl)-1H-imidazol-2-yl)benzamide], the “Sox-1 mRNA” value ([6]; alone at 10 μM) was “moderate increase” and the “expression of the three markers (Pax-6, Sox-1, nestin mRNAs)” value ([6]; alone at 10 μM) was “did not increase the three markers”.

COc1ccc(-c2cnc3c(-c4cccc5ncccc45)cnn3c2)cc1 [ML347, 5-[6-(4 Methoxyphenyl)pyrazolo[1,5-a]pyrimidin-3-yl]quinoline] showed a Cmax [1] of 580 ± 200 nM.

For Cc1cccc(-c2nn(C(=S)Nc3ccccc3)cc2-c2ccnc3ccccc23)n1 [A8301, 3-(6-Methylpyridin-2-yl)-N-phenyl-4-(quinolin-4-yl)-1H-pyrazole-1-carbothioamide], the Cmax [1] was 5180 ± 1780 nM, the “expression of nestin, Pax-6 and Sox-1 by immunofluorescent staining” value [5] was “homogeneously expressed nestin, Pax-6 and Sox-1” and the “FoxG1 expression” value (HS420 cells [2]) was “upregulation of FoxG1”. For the same molecule, the “neural induction with generation” value (HS420 cells [3]) was “favoured neural induction with the generation of cells able to be further maturated into neurons”, the “epithelial-like cells spreading between the colonies” value [4] was “invaded as a monolayer the free tissue culture plate between the colonies” and the “morphological modifications” value [4] was “showed morphological modifications”.

In the case of c1ccc2c(-c3cnn4cc(-c5ccc(N6CCNCC6)cc5)cnc34)ccnc2c1 [LDN193189], the “expression of Pax-6, Sox-1 and nestin mRNAs compared to control” value ([6]; 0.5 μM) is reported as “increased the expression of Pax-6, Sox-1 and nestin mRNAs”.

With CC(C)Oc1ccc(-c2cnc3c(-c4ccnc5ccccc45)cnn3c2)cc1 [DMH1, 4-[6-(4-Propan-2-yloxyphenyl)pyrazolo[1,5-a]pyrimidin-3-yl]quinoline] the Cmax [1] was 970 ± 460 nM, the “FoxG1 expression” value (HS420 cells [2]) was “reduced FoxG1 expression” and the “neural induction with generation” value (HS420 cells [3]) was “favoured neural induction with the generation of cells able to be further maturated into neurons”. The “morphological modifications” value [4] was “showed morphological modifications”.

B1: Noggin: Noggin protein, BMP inhibitor, provided by Miltenyi Biotec (ref 130-103-456) (protein, UniProt Q13253 28-232, looked up)
Noggin: QHYLHIRPAPSDNLPLVDLIEHPDPIFDPKEKDLNETLLRSLLGGHYDPGFMATSPPEDRPGGGGGAAGGAEDLAELDQLLRQRPSGAMPSEIKGLEFSEGLAQGKKQRLSKKLRRKLQMWLWSQTFCPVLYAWNDLGSRFWPRYVKVGSCFSKRSCSVPEGMVCKPSKSVHLTVLRWRCQRRGGQRCGWIPIQYPIISECKCSC
With B1 the “effect on neuroectodermal marker mRNAs” value ([6]; alone at 100 ng/ml) was “moderate effect”.
